From ChEMBL document CHEMBL3112406, “Virtual screening and biochemical evaluation to identify new inhibitors of mammalian target of rapamycin (mTOR)” (Bioorg Med Chem Lett, 2014) come the findings set out here.

Structures are written as SMILES.

This test addresses Serine/threonine-protein kinase mTOR (Homo sapiens, UniProt P42345). The test can be described thus: Inhibition of mTOR (unknown origin) by KINOMEscan assay.

As usually defined, the IC50 is the concentration needed to halve the response being measured. A low value points to greater potency. On to `c1ccc(-c2c(-c3ccccc3)n(Cc3ccco3)c3ncnc(NCCCn4ccnc4)c23)cc1`, for which the midpoint of inhibition, the IC50, lay at 54.1 µM.
